Experimental data reported in patent US10800785B2, “Substituted pyrrolo[2,3-d]pyridazin-4-ones and pyrazolo[3,4-d]pyridazin-4-ones as protein kinase inhibitors” (Shanghai Fochon Pharmaceutical Co., Ltd., priority 2016, dated 2020).

The molecules below were run on DOHH2 cells (assay: Cell proliferation assay (MTS) in DOHH2 cells, mechanism-based assay for BTK inhibition). Details: Homo sapiens, DOHH-2, 120 h incubation, 5000 cells/well.
Procedure, shortened: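 DOHH2 cells (5000/well) were plated in RPMI-1640 with 10% FBS, left overnight, then exposed 120 h at 37° C, 5% CO2 to compound at 1.5–10000 nM final (nine levels). Proliferation was read by MTS, incubated exactly 2 h and stopped with SDS, as a measure of cellular BTK inhibition.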
Molecule CC#CC(=O)N1CCC[C@H](c2cn(-c3ccc(Oc4c(F)cccc4F)cc3)c3c(N)n[nH]c(=O)c23)C1 [Example 88, (R)-7-amino-3-(1-(but-2-ynoyl)piperidin-3-yl)-1-(4-(2,6-difluorophenoxy)phenyl)-1,5-dihydro-4H-pyrrolo[2,3-d]pyridazin-4-one] has an IC50 of 432 nM. Molecule C=CC(=O)N1CC(c2cn(-c3ccc(Oc4ccccc4F)cc3)c3c(N)n[nH]c(=O)c23)C1 [Example 111, 3-(1-acryloylazetidin-3-yl)-7-amino-1-(4-(2-fluorophenoxy)phenyl)-1,5-dihydro-4H-pyrrolo [2,3-d]pyridazin-4-one] has an IC50 of 261 nM. Work on C=CC(=O)N1CCC[C@H](c2nn(-c3ccc(Oc4c(F)cccc4F)cc3)c3c(N)n[nH]c(=O)c23)C1 [Example 63, (S)-3-(1-acryloylpiperidin-3-yl)-7-amino-1-(4-(2,6-difluorophenoxy)phenyl)-1,5-dihydro-4H-pyrazolo[3,4-d]pyridazin-4-one] yielded an IC50 of 189 nM. Work on C=CC(=O)N1CC[C@@H](c2nn(-c3ccc(Oc4ccccc4F)cc3)c3c(N)n[nH]c(=O)c23)C1 [Example 41, (R)-3-(1-acryloylpyrrolidin-3-yl)-7-amino-1-(4-(2-fluorophenoxy)phenyl)-1,5-dihydro-4H-pyrazolo[3,4-d]pyridazin-4-one] yielded an IC50 of 146 nM. CC#CC(=O)N1CC[C@@H](c2cn(-c3ccc(Oc4c(F)cccc4F)cc3)c3c(N)n[nH]c(=O)c23)C1 [Example 83, (S)-7-amino-3-(1-(but-2-ynoyl)pyrrolidin-3-yl)-1-(4-(2,6-difluorophenoxy)phenyl)-1,5-dihydro-4H-pyrrolo[2,3-d]pyridazin-4-one] showed an IC50 of 456 nM. With C=CC(=O)N1CC[C@H](c2cn(-c3ccc(Oc4c(F)cccc4F)cc3)c3c(N)n[nH]c(=O)c23)C1 [Example 27, (R)-3-(1-acryloylpyrrolidin-3-yl)-7-amino-1-(4-(2,6-difluorophenoxy)phenyl)-1,5-dihydro-4H-pyrrolo[2,3-d]pyridazin-4-one] the IC50 was 47 nM. For CC#CC(=O)N1CC[C@@H](c2cn(-c3ccc(Oc4ccccc4)cc3)c3c(N)n[nH]c(=O)c23)C1 [Example 67, (S)-7-amino-3-(1-(but-2-ynoyl)pyrrolidin-3-yl)-1-(4-phenoxyphenyl)-1,5-dihydro-4H-pyrrolo [2,3-d]pyridazin-4-one], the IC50 was 205 nM. With C=CC(=O)N1CCC[C@@H](c2nn(-c3ccc(Oc4ccccc4F)cc3)c3c(N)n[nH]c(=O)c23)C1 [Example 53, (R)-3-(1-acryloylpiperidin-3-yl)-7-amino-1-(4-(2-fluorophenoxy)phenyl)-1,5-dihydro-4H-pyrazolo[3,4-d]pyridazin-4-one] the IC50 was 196 nM. In the case of C=CC(=O)N1CC[C@@H](c2nn(-c3ccc(Oc4cc(F)cc(F)c4)cc3)c3c(N)n[nH]c(=O)c23)C1 [Example 46, (R)-3-(1-acryloylpyrrolidin-3-yl)-7-amino-1-(4-(3,5-difluorophenoxy)phenyl)-1,5-dihydro-4H-pyrazolo[3,4-d]pyridazin-4-one], the IC50 is reported as 59 nM. In the case of CC#CC(=O)N1CC[C@H](c2nn(-c3ccc(Oc4ccccc4F)cc3)c3c(N)n[nH]c(=O)c23)C1 [Example 74, (S)-7-amino-3-(1-(but-2-ynoyl)pyrrolidin-3-yl)-1-(4-(2-fluorophenoxy)phenyl)-1,5-dihydro-4H-pyrazolo[3,4-d]pyridazin-4-one], the IC50 is reported as 393 nM. For CC#CC(=O)N1CC[C@H](c2nn(-c3ccc(Oc4c(F)cccc4F)cc3)c3c(N)n[nH]c(=O)c23)C1 [Example 82, (S)-7-amino-3-(1-(but-2-ynoyl)pyrrolidin-3-yl)-1-(4-(2,6-difluorophenoxy)phenyl)-1,5-dihydro-4H-pyrazolo[3,4-d]pyridazin-4-one], the IC50 was 687 nM. CC#CC(=O)N1CCC[C@@H](c2nn(-c3ccc(Oc4ccccc4)cc3)c3c(N)n[nH]c(=O)c23)C1 [Example 69, (R)-7-amino-3-(1-(but-2-ynoyl)piperidin-3-yl)-1-(4-phenoxyphenyl)-1,5-dihydro-4H-pyrazolo [3,4-d]pyridazin-4-one] was tested, and the IC50 was 863 nM. C=CC(=O)N1CC[C@@H](c2cn(-c3ccc(Oc4cccc(F)c4)cc3)c3c(N)n[nH]c(=O)c23)C1 [Example 18, (S)-3-(1-acryloylpyrrolidin-3-yl)-7-amino-1-(4-(3-fluorophenoxy)phenyl)-1,5-dihydro-4H-pyrrolo[2,3-d]pyridazin-4-one] gave an IC50 of 181 nM. For C=CC(=O)N1CC[C@H](c2nn(-c3ccc(Oc4ccccc4)cc3)c3c(N)n[nH]c(=O)c23)C1 [Example 14, (S)-3-(1-acryloylpyrrolidin-3-yl)-7-amino-1-(4-phenoxyphenyl)-1,5-dihydro-4H-pyrazolo[3,4-d]pyridazin-4-one], the IC50 was 50 nM. For C=CC(=O)N1CCC[C@@H](c2nn(-c3ccc(Oc4cc(F)cc(F)c4)cc3)c3c(N)n[nH]c(=O)c23)C1 [Example 58, (R)-3-(1-acryloylpiperidin-3-yl)-7-amino-1-(4-(3,5-difluorophenoxy)phenyl)-1,5-dihydro-4H-pyrazolo[3,4-d]pyridazin-4-one], the IC50 was 224 nM. CC#CC(=O)N1CCC(c2cn(-c3ccc(Oc4c(F)cccc4F)cc3)c3c(N)n[nH]c(=O)c23)C1 (centres unmarked) [Example 4, 7-amino-3-(1-(but-2-ynoyl)pyrrolidin-3-yl)-1-(4-(2,6-difluorophenoxy)phenyl)-1,5-dihydro-4H-pyrrolo[2,3-d]pyridazin-4-one] gave an IC50 of 250 nM. C=CC(=O)N1CCC[C@H](c2nn(-c3ccc(Oc4ccccc4)cc3)c3c(N)n[nH]c(=O)c23)C1 [Example 16, (S)-3-(1-acryloylpiperidin-3-yl)-7-amino-1-(4-phenoxyphenyl)-1,5-dihydro-4H-pyrazolo[3,4-d]pyridazin-4-one] was tested, and the IC50 was 37 nM. CN(C)C/C=C/C(=O)N1CCC[C@@H](c2cn(-c3ccc(Oc4ccccc4)cc3)c3c(N)n[nH]c(=O)c23)C1 [Example 103, (S,E)-7-amino-3-(1-(4-(dimethylamino)but-2-enoyl)piperidin-3-yl)-1-(4-phenoxyphenyl)-1,5-dihydro-4H-pyrrolo[2,3-d]pyridazin-4-one] gave an IC50 of 97 nM. CC#CC(=O)N1CCC[C@@H](c2nn(-c3ccc(Oc4ccccc4F)cc3)c3c(N)n[nH]c(=O)c23)C1 [Example 77, (R)-7-amino-3-(1-(but-2-ynoyl)piperidin-3-yl)-1-(4-(2-fluorophenoxy)phenyl)-1,5-dihydro-4H-pyrazolo[3,4-d]pyridazin-4-one] showed an IC50 of 666 nM. C=CC(=O)N1CCC[C@@H](c2nn(-c3ccc(Oc4ccccc4)cc3)c3c(N)n[nH]c(=O)c23)C1 [Example 15, (R)-3-(1-acryloylpiperidin-3-yl)-7-amino-1-(4-phenoxyphenyl)-1,5-dihydro-4H-pyrazolo[3,4-d]pyridazin-4-one] was tested, and the IC50 was 40 nM. With C=CC(=O)N1CCC(c2nn(-c3ccc(Oc4ccccc4)cc3)c3c(N)n[nH]c(=O)c23)C1 (centres unmarked) [Example 5, 3-(1-acryloylpyrrolidin-3-yl)-7-amino-1-(4-phenoxyphenyl)-1,5-dihydro-4H-pyrazolo[3,4-d]pyridazin-4-one] the IC50 was 25 nM. Molecule C=CC(=O)N1CC[C@@H](c2nn(-c3ccc(C(=O)Nc4ccccn4)cc3)c3c(N)n[nH]c(=O)c23)C1 [Example 90, (R)-4-(3-(1-acryloylpyrrolidin-3-yl)-7-amino-4-oxo-4,5-dihydro-1H-pyrazolo[3,4-d]pyridazin-1-yl)-N-(pyridin-2-yl)benzamide] has an IC50 of 580 nM. Work on C=CC(=O)N1CCC(c2cn(-c3ccc(Oc4ccccc4F)cc3)c3c(N)n[nH]c(=O)c23)CC1 [Example 113, 3-(1-acryloylpiperidin-4-yl)-7-amino-1-(4-(2-fluorophenoxy)phenyl)-1,5-dihydro-4H-pyrrolo[2,3-d]pyridazin-4-one] yielded an IC50 of 161 nM.
